≈ marks a conversion by molar mass, not a printed value. Calls of active or inactive are those of the source. The calls are words filed in the database; no cut-off is given here.
Key:
Bombyx mori = test: Insecticidal activity against third instar larvae of Bombyx mori (silkworm) measured after 24 hrs; format: functional
Helicoverpa armigera = test: Insecticidal activity against third instar larvae of Helicoverpa armigera (cotton bollworms) measured after 24 hrs; format: functional
Bacillus subtilis = test: Antibacterial activity against Bacillus subtilis measured after 24 hrs by agar diffusion method; format: functional
PC12D = test: Neuroprotective activity in rat PC12 cells assessed as reduction in 6-OHDA-induced cell death at 40 uM pretreated for 30 mins followed by 6-OHDA stimulation and measured after 24 hrs by MTT assay; format: functional, cell-based; conditions: time 24.5 hrs

Row | MIC (Bacillus subtilis) [µg/mL] | SMILES | LD50 (Bombyx mori) [mg/kg] | LD50 (Helicoverpa armigera) [mg/kg] | Activity (PC12D)
1 |  | CO[C@@H]1[C@]2(O)c3cccc(O)c3N3C(C)(C)[C@H](C)[C@]32N2C(=O)/C3=C/c4c([nH]c5cc(Cl)ccc45)C(C)(C)/C=C\N3C(=O)[C@]12O | 7.56 | 4.13 | 
2 | 6.3 (≈ 16.3 µM) | C/C(O)=C1\C(=O)[C@@H]2[C@H]3c4c[nH]c5cc(Cl)cc(c45)[C@@H](O)[C@H]3C(C)(C)N2C1=O |  |  | 
3 |  | CC(NCCc1ccccc1)=C1C(=O)[C@@H]2[C@H]3c4c[nH]c5cccc(c45)C[C@H]3C(C)(C)N2C1=O (mixture of isomers) |  |  | Active
4 |  | C=C(C)[C@H]1Cc2c(ccc3c2O[C@@H]2COc4cc(OC)c(OC)cc4[C@@H]2C3=O)O1 [ROTENONE] | 37.8 | 5.79 | 
5 |  | CO[C@@H]1[C@]2(O)c3cc(O)ccc3N3C(C)(C)[C@H](C)[C@]32N2C(=O)/C3=C/c4c([nH]c5ccccc45)C(C)(C)/C=C\N3C(=O)[C@]12O | 0.07 | < 0.01 | 
6 |  | CO[C@@H]1[C@]2(O)c3cc(O)ccc3N3C(C)(C)[C@H](CO)[C@]32N2C(=O)/C3=C/c4c([nH]c5ccccc45)C(C)(C)/C=C\N3C(=O)[C@]12O | > 100 | > 100 | 
7 |  | CO[C@@H]1[C@]2(O)c3cc(O)ccc3N3C(C)(C)[C@H](C)[C@]32N2C(=O)/C3=C/c4c([nH]c5cc(Cl)ccc45)C(C)(C)/C=C\N3C(=O)[C@]12O | 0.61 | 0.06 | 
8 |  | CO[C@@H]1[C@]2(O)c3cc(O)ccc3N3C(C)(C)[C@H](CO)[C@]32N2C(=O)/C3=C/c4c([nH]c5cc(Cl)ccc45)C(C)(C)/C=C\N3C(=O)[C@]12O | > 100 | > 100 | 
